From ChEMBL document CHEMBL3044763, “Inhibitory Activities of Rhodanine Derivatives on Plant Growth” (Biosci Biotechnol Biochem, 1996)

What was measured:
[1] = system: Brassica rapa subsp. oleifera; test: Growth inhibition of Brassica rapa subsp. oleifera assessed as chlorophyll b level at 3 x 10^-4 M after 7 days; assay type: functional; design: scale not given: the % may be the effect or the level left
[2] = system: Brassica rapa subsp. oleifera; test: Growth inhibition of Brassica rapa subsp. oleifera assessed as chlorophyll b level at 1 x 10^-4 M after 7 days; assay type: functional; design: scale not given: the % may be the effect or the level left
[3] = Toxicity in ip dosed Mus musculus ddY (mouse) assessed as mortality after 1 to 7 days; assay type: organism-based; conditions: in vivo
[4] = Toxicity in Mus musculus ddY (mouse) assessed as mortality at 5 mg/kg, ip after 7 days; assay type: organism-based; design: dose 5 mg/kg, route intraperitoneal; conditions: in vivo
[5] = system: Brassica rapa subsp. oleifera; test: Growth inhibition of Brassica rapa subsp. oleifera assessed as total chlorophyll level at 5 x 10^-5 M after 7 days; assay type: functional; design: scale not given: the % may be the effect or the level left
[6] = system: Brassica rapa subsp. oleifera; test: Growth inhibition of Brassica rapa subsp. oleifera assessed as total chlorophyll level at 3 x 10^-4 M after 7 days; assay type: functional; design: scale not given: the % may be the effect or the level left
[7] = system: Allium tuberosum; test: Growth inhibition of Allium tuberosum assessed as root growth at 5 x 10^-5 M after 10 days; assay type: functional
[8] = system: Echinochloa esculenta; test: Growth inhibition of Echinochloa esculenta assessed as root growth at 3 x 10^-5 M after 7 days; assay type: functional
[9] = system: Allium tuberosum; test: Growth inhibition of Allium tuberosum assessed as root growth at 3 x 10^-4 M after 10 days; assay type: functional
[10] = system: Echinochloa esculenta; test: Growth inhibition of Echinochloa esculenta assessed as root growth at 5 x 10^-5 M after 7 days; assay type: functional
[11] = system: Echinochloa esculenta; test: Growth inhibition of Echinochloa esculenta assessed as root growth at 3 x 10^-4 M after 7 days; assay type: functional
[12] = system: Brassica rapa subsp. oleifera; test: Growth inhibition of Brassica rapa subsp. oleifera assessed as root growth at 3 x 10^-5 M after 7 days; assay type: functional
[13] = system: Lactuca sativa; test: Growth inhibition of Lactuca sativa (lettuce) assessed as root growth at 3 x 10^-5 M after 7 days; assay type: functional
[14] = system: Lactuca sativa; test: Growth inhibition of Lactuca sativa (lettuce) assessed as root growth at 3 x 10^-4 M after 7 days; assay type: functional
[15] = system: Lactuca sativa; test: Growth inhibition of Lactuca sativa (lettuce) assessed as root growth at 1 x 10^-4 M after 7 days; assay type: functional
[16] = system: Daucus carota; test: Growth inhibition of Daucus carota (carrot) assessed as root growth at 3 x 10^-4 M after 7 days; assay type: functional
[17] = system: Sesamum indicum; test: Growth inhibition of Sesamum indicum (sesame) assessed as root growth at 1 x 10^-5 M after 7 days; assay type: functional
[18] = Toxicity in Mus musculus ddY (mouse) assessed as mortality at 3 mg/kg, ip after 3 days; assay type: organism-based; design: dose 3 mg/kg, route intraperitoneal; conditions: in vivo
[19] = Toxicity in Mus musculus ddY (mouse) assessed as mortality at 7 mg/kg, ip after 3 days; assay type: organism-based; design: dose 7 mg/kg, route intraperitoneal; conditions: in vivo
[20] = Toxicity in Mus musculus ddY (mouse) assessed as mortality at 7 mg/kg, ip after 2 days; assay type: organism-based; design: dose 7 mg/kg, route intraperitoneal; conditions: in vivo
[21] = Toxicity in Mus musculus ddY (mouse) assessed as mortality at 7 mg/kg, ip after 1 day; assay type: organism-based; design: dose 7 mg/kg, route intraperitoneal; conditions: in vivo
[22] = system: Brassica rapa subsp. oleifera; test: Growth inhibition of Brassica rapa subsp. oleifera assessed as chlorophyll a level at 3 x 10^-4 M after 7 days; assay type: functional; design: scale not given: the % may be the effect or the level left
[23] = Toxicity in Mus musculus ddY (mouse) assessed as mortality at 5 mg/kg, ip after 4 days; assay type: organism-based; design: dose 5 mg/kg, route intraperitoneal; conditions: in vivo
[24] = Toxicity in Mus musculus ddY (mouse) assessed as mortality at 5 mg/kg, ip after 6 days; assay type: organism-based; design: dose 5 mg/kg, route intraperitoneal; conditions: in vivo
[25] = Toxicity in Mus musculus ddY (mouse) assessed as mortality at 8 mg/kg, ip after 6 days; assay type: organism-based; design: dose 8 mg/kg, route intraperitoneal; conditions: in vivo
[26] = Toxicity in Mus musculus ddY (mouse) assessed as mortality at 4 mg/kg, ip after 5 days; assay type: organism-based; design: dose 4 mg/kg, route intraperitoneal; conditions: in vivo
[27] = Toxicity in Mus musculus ddY (mouse) assessed as mortality at 5 mg/kg, ip after 5 days; assay type: organism-based; design: dose 5 mg/kg, route intraperitoneal; conditions: in vivo

NN1C(=O)CSC1=S [AMINORHODANINE]
Activity [1]: 3.4%
Activity [2]: 3.82%
LD50 [3]: 5.07 mg/kg
mortality at 168 h [4]: 60%
Activity [5]: 13.57%
Activity [6]: 11.16%
Activity [7]: 8.6 mm
Activity [8]: 16 mm
Activity [9]: 1.4 mm
Activity [10]: 11.2 mm
Activity [11]: 3.1 mm
Root length [12]: 30.8 mm
Activity [13]: 6.1 mm
Activity [14]: 0 mm
Activity [15]: 3.2 mm
Activity [16]: 0 mm
Activity [17]: 6.8 mm
mortality at 72 h [18]: 0%
mortality at 72 h [19]: 80%
mortality at 48 h [20]: 80%
mortality at 24 h [21]: 80%
Activity [22]: 7.76%
mortality at 96 h [23]: 60%
mortality at 144 h [24]: 60%
mortality at 144 h [25]: 100%
mortality at 120 h [26]: 20%
mortality at 120 h [27]: 60%
